Data taken from publication PMC7071032, “In Vitro Inhibition of Hsp90 Protein by Benzothiazoloquinazolinequinones Is Enhanced in The Presence of Ascorbate. A Preliminary In Vivo Antiproliferative Study” (Molecules, 2020).
Values joined by “and” are separate entries in the source; they are usually repeats but may differ in a detail not shown here. Equal values may be shown once.

Experiments:
T24 cells = assay: Clonogenic assay; format: cell-based, human; details: for cell growth compared to control conditions (100%), in brackets / number of colony forming units (CFUs): T24 cells; for number of colony forming units (CFUs): 24 h treatment, 10 days growth
Protocol: Indeed, at a dose of 0.25 µM, it decreased from 195 to 72 the number of CFUs. Otherwise, it inhibits the proliferation of T24 cells by 63% as compared to the control untreated cells. […] The percentages of the observed cell growth compared to control conditions (100%) are indicated in brackets. […] Cells were allowed to adhere overnight, and then treated with quinones for 24 h. Afterward, they were washed with warm PBS, given fresh medium, and allowed to grow for 10 days. Clonogenic survival was determined by fixing and staining colonies using crystal violet and further counting their number. The number of colonies calculated under control conditions was set as 100%.

PARP = assay: Immunoblot of PARP protein integrity in TLT cells; format: cell-based, murine; details: 5 µM plus 1 mM ascorbate, 4 h
Protocol: (§1) Cancer cells were incubated for 4 h with 5 µM menadione (K3) or 15 either in the absence or in the presence of 1 mM ascorbate (Asc). Ctl represents control untreated cells. * p < 0.05 as compared to control conditions. Cancer cells were incubated for 4 h in the absence and in the presence of compounds. Afterward, cells were washed twice with ice-cold PBS and then resuspended in RIPA lysis buffer supplemented with 1% protease inhibitor cocktail (Sigma–Aldrich, St. Louis, MO, USA) and 3% phosphatase inhibitor cocktail (Calbiochem, Darmstadt, Germany). Treatment of samples and electrophoresis conditions were conducted as previously reported. Mouse monoclonal primary antibodies against hsp90α/β C-terminus (F8), and against β-actin (clone AC-15), were purchased from Santa Cruz Biotechnology (Santa Cruz, CA, USA) and from Abcam (Cambridge, UK), respectively. Rabbit polyclonal antibodies against PARP were purchased from BD Biosciences (San Diego, CA, USA). Goat anti-rabbit antibody and rabbit anti-mouse polyclonal antibody were purchased respectively from Chemicon International (Temecula, CA, USA) and DakoCytomation (Glostrup, Denmark).

Hsp90 = assay: Immunoblot of Hsp90 protein integrity in TLT cells; format: cell-based, murine; details: 5 µM plus 1 mM ascorbate, 4 h
Protocol: as §1

T24 (bladder) cells = tested on: T24 (bladder) cells; design: method as in doi:10.1016/j.tetlet.2015.07.034; details: MTT, data from Valderrama et al. ref 16, read-out: IC50 ± SEM T24; cited from earlier work
[1] = tested on: transplantable primary liver tumor (TLT); assay: In vivo antitumor activity in TLT-bearing mice; details: TLT-bearing NMRI mice
Protocol: To go one-step further, we assessed the effect of the quinone derivative 15 in the TLT-bearing mice model. The dose of 15 used in this study (i.e., 10 mg/kg) was calculated according to doses of menadione, previously used by Verrax et al.. In mice treated with 15, the calculated mean survival time was 24.0 days as compared to 21.9 days in control untreated-animals, representing an increase in life span of 9.6 % (Figure 3). Although this ILS represents a marginal effect as compared to a minimum optimal effect […], a small trend can be inferred supporting a potential protective activity by 15, that requires to be further confirmed. […] To go further, studies are intended in the near future using a larger range of doses of 15.
Figure 3 Kaplan–Meier diagram in groups of TLT-bearing NMRI mice receiving intraperitoneal (i.p.) saline (control untreated animals). Compound 15 was also i.p. administered as 10 mg/kg body weight, 24 h after i.p. transplantation of TLT cells.
Young adult male NMRI mice (25–30 g) were obtained from Janvier Labs (Saint-Berthevin, France). After their placement at the University Animal Facilities, animals were randomized according to their body weight. They were housed in groups of five mice per cage (40 × 25 × 15 cm^3) in a constant temperature environment (22 °C) with alternating 12 h day/night cycles receiving standard food (UAR, Villemoisson-sur-Orge, France) and tap water ad libitum.
Taper et al. first observed the transplantable primary liver tumor (TLT) in 1966 in a two-month old female Swiss Webster mouse. […] Fritzler et al. further characterized the ultrastructure of TLT hepatoma ascites cells. Regarding our experimental conditions, the TLT tumor was maintained by weekly intraperitoneal (i.p.) transplantation (10^4 cells/mice). […] Then, mice mortality was daily recorded. […]
The antitumor activity was calculated according to Geran et al. using the mean survival time (m.s.t.) at day 30 and the increase in life span (ILS) calculated as ILS = [([…]) − 1] × 100. […]

In the case of `Cc1ccc2c(c1)SC1=NC3=C(C(=O)c4ccccc4C3=O)C(C)(O)N12` (stereo not shown) [Compound 15], the inhibition at 0.25 µM (T24 cells; Homo sapiens, T-24, clonogenic assay, 0.25 µM, read-out: inhibition of the proliferation of T24 cells as compared to control untreated cells) is reported as 63%, the “cell growth compared to control conditions (100%), in brackets” value (from here on “cell growth … (100%), in brackets”) (T24 cells; 0.025 µM) is reported as 92% and the “number of colony forming units (CFUs)” value (T24 cells; 0.025 µM) is reported as 180 ± 11 CFUs. For the same molecule, the “cell growth … (100%), in brackets” value (T24 cells; 0.125 µM) was 83%, the “number of colony forming units (CFUs)” value (T24 cells; 0.125 µM) was 162 ± 18 CFUs and the “cell growth … (100%), in brackets” value (T24 cells; 0.25 µM) was 37%. For the same molecule, the “number of colony forming units (CFUs)” value (T24 cells; 0.25 µM) was 72 CFUs and 72 ± 5 CFUs, the “cell growth … (100%), in brackets” value (T24 cells; 1.25 µM) was 11% and the “number of colony forming units (CFUs)” value (T24 cells; 1.25 µM) was 22 ± 9 CFUs. The “cell growth … (100%), in brackets” value (T24 cells; 2.5 µM) was 8%, the “number of colony forming units (CFUs)” value (T24 cells; 2.5 µM) was 16 ± 3 CFUs and the “cell growth … (100%), in brackets” value (T24 cells; 5.0 µM) was 1%. For the same molecule, the “number of colony forming units (CFUs)” value (T24 cells; 5.0 µM) was 2 ± 1 CFUs, the PARP degradation (PARP) was “not PARP degradation” and the Hsp90 protein cleavage (Hsp90) was “oxidative cleavage of Hsp90”. For the same molecule, the IC50 (T24 (bladder) cells) was 220 ± 60 nM, the “mean survival time (m.s.t.)” value ([1]; 10 mg/kg i.p. single dose 24 h after i.p. transplantation, control 21.9 days) was 24.0 days and the “increase in life span (ILS)” value ([1]; 10 mg/kg i.p. single dose, vs control untreated animals) was 9.6%. The “mean of individual mouse survival” value ([1]; 10 mg/kg i.p., control 21.2 ± 1.6 days, t-test p = 0.262, no significant difference) was 22.8 ± 6.1 days.
